Results on six compounds are retold here after ChEMBL document CHEMBL5465560, “Selectivity Literature for EUbOPEN Chemogenomic Library” (2024).

The target in assay [1] is Insulin receptor (Homo sapiens, UniProt P06213). As to the kind of experiment: Selectivity interaction (Kinase panel (Z-LYTE Assay)) EUB0001632a INSR. The settings on record: at 10 µM.
For assay [2], the target named is T1, Receptor-interacting serine/threonine-protein kinase 1 (Homo sapiens) (UniProt Q13546).
T1 sequence (whole entry): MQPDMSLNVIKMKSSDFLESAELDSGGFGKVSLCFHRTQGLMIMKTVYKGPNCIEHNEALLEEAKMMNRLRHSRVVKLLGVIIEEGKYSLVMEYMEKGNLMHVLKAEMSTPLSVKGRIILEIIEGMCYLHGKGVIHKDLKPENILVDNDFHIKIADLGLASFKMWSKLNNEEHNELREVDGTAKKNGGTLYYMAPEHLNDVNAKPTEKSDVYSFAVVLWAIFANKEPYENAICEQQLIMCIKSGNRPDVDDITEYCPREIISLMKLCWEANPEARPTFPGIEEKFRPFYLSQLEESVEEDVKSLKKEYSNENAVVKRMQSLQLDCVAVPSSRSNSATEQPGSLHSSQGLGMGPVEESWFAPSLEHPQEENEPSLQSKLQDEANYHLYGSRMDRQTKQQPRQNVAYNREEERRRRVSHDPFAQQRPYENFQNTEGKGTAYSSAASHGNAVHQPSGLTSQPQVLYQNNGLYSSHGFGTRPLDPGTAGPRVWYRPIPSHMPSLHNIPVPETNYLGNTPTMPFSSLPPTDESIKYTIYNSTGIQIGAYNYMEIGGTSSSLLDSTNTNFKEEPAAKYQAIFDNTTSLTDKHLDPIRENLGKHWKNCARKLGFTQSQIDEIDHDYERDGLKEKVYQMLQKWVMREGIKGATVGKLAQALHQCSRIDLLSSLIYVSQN
Put plainly: Selectivity interaction (KinomeScan (DiscoverX)) EUB0000229b RIPK1. The following applies: at 10 µM.

Assay [3] concerns the target T2, Serine/threonine-protein kinase Nek9 (Homo sapiens) (UniProt Q8TD19).
T2 sequence (whole entry): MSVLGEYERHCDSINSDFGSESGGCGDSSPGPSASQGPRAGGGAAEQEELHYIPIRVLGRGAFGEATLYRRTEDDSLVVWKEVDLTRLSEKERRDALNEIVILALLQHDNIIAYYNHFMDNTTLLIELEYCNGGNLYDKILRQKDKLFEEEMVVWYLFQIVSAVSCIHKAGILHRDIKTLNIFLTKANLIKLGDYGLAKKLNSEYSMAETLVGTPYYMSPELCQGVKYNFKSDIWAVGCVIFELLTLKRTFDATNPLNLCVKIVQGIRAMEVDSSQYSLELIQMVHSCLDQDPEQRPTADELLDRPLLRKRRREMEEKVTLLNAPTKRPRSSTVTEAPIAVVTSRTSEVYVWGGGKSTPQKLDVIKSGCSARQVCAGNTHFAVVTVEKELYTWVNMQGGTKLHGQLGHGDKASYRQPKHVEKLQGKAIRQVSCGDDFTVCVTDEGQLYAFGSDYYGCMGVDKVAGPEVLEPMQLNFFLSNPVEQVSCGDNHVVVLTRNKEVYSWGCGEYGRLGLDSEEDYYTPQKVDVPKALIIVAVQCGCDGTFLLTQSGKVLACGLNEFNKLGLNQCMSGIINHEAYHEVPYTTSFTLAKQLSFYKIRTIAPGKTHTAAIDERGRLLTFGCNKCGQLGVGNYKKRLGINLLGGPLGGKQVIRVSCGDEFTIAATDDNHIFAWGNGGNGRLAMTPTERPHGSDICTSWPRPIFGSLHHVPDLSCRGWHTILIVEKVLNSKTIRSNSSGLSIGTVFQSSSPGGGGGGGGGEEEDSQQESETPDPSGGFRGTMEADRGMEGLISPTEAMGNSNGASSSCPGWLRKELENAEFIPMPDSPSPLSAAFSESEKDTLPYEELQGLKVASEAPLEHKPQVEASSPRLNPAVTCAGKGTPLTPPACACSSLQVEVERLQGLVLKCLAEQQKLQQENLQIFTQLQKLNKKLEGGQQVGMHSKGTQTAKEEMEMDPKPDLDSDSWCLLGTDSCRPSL
As to the kind of experiment: Selectivity interaction (KinomeScan (DiscoverX)) EUB0000655a NEK9. The following applies: at 10 µM.

Assay [4] deals with T3, Serine/threonine-protein kinase LATS1 (Homo sapiens) (UniProt O95835).
T3 sequence (whole entry): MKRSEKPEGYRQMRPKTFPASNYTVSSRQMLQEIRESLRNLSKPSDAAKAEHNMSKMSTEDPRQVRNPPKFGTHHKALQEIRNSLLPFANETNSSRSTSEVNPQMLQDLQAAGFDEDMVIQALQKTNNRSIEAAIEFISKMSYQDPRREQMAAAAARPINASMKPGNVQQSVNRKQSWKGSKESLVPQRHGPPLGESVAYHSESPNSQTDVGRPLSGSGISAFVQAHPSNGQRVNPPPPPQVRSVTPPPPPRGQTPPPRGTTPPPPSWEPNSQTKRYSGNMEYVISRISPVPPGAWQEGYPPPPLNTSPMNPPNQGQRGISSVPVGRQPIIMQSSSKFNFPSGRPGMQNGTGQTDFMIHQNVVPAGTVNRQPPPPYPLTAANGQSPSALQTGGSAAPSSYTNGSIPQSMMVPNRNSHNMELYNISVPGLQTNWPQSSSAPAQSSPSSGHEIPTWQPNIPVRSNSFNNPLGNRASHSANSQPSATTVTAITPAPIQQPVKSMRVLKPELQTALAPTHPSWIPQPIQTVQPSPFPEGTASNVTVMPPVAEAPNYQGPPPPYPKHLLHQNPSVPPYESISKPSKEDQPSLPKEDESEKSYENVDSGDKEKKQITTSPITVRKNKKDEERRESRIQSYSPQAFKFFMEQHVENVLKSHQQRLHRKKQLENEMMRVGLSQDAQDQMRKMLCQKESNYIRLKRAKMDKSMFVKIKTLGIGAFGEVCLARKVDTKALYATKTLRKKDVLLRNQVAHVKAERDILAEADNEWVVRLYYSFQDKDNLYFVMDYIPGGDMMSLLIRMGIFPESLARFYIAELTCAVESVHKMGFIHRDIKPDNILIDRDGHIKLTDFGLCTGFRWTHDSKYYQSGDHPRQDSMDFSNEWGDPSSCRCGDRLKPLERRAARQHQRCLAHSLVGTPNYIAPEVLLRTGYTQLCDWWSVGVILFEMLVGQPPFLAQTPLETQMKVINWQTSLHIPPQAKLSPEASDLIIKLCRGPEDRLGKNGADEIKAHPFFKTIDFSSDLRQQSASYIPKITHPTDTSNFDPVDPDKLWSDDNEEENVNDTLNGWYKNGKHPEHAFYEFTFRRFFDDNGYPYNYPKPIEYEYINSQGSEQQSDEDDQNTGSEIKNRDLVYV
As to the kind of experiment: Selectivity interaction (KinomeScan (DiscoverX)) EUB0001079a LATS1. The following applies: at 1 µM.

Assay [5] deals with Serine/threonine-protein kinase pim-3 (Homo sapiens) (UniProt Q86V86). As to the kind of experiment: Selectivity interaction (Kinase panel (DSF assay)) EUB0001559a PIM3. (Differential scanning fluorimetry follows unfolding on heating by fluorescence.)
Assay [6] deals with Myosin light chain kinase, smooth muscle (Homo sapiens, UniProt Q15746). Put plainly: Selectivity interaction (Upstate Kinase Profiler service (Millipore)) EUB0000056c MYLK. The settings on record: at 1 µM.
Myosin light chain kinase, smooth muscle, sequence (Q15746 whole entry): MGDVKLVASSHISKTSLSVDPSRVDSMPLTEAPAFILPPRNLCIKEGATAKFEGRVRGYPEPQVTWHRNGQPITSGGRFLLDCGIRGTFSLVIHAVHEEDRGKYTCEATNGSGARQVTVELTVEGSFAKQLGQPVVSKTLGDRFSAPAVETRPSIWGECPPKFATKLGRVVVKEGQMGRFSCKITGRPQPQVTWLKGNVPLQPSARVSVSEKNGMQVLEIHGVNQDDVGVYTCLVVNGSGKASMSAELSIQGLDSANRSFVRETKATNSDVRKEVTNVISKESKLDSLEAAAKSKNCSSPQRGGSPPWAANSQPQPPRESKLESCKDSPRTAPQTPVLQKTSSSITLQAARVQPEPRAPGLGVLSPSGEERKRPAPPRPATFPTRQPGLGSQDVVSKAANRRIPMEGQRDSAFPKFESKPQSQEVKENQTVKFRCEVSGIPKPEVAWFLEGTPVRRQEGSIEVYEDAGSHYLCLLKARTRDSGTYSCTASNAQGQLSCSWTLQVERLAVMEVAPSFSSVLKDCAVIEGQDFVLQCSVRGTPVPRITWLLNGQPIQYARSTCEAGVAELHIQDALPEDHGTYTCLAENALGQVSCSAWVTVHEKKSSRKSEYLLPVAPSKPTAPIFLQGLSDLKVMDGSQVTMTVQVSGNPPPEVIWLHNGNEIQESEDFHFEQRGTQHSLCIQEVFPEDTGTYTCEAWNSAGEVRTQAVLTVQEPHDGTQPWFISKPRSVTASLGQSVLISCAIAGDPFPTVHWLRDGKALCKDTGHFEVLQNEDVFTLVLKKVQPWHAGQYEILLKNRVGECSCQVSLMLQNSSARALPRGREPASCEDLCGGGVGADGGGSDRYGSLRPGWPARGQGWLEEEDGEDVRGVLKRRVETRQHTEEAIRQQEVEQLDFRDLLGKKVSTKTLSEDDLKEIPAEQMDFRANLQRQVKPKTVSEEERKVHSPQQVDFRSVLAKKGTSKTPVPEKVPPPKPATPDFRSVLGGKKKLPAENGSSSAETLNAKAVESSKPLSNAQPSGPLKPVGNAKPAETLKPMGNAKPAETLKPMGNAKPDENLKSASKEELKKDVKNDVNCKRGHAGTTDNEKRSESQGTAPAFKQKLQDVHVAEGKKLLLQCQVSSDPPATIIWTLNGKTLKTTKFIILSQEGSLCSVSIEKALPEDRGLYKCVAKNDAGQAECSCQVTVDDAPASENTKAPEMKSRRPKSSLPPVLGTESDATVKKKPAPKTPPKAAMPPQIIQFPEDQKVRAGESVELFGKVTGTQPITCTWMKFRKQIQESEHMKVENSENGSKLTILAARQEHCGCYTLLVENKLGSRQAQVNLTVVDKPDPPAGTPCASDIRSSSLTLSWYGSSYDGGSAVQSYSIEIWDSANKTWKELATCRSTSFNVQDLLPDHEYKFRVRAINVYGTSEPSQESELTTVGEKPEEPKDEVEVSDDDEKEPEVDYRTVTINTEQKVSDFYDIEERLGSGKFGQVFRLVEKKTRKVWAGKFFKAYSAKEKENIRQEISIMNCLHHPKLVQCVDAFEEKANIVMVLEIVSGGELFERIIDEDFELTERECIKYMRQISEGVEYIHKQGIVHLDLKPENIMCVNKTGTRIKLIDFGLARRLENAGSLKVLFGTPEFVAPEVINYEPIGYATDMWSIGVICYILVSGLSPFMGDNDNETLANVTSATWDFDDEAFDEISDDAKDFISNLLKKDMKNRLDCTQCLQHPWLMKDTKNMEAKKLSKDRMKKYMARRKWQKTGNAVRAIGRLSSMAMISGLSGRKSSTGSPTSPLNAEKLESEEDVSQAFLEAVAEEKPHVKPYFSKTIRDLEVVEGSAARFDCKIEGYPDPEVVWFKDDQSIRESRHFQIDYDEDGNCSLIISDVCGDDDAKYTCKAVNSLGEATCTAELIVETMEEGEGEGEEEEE

Insulin receptor, sequence (P06213 28-758 limits assumed): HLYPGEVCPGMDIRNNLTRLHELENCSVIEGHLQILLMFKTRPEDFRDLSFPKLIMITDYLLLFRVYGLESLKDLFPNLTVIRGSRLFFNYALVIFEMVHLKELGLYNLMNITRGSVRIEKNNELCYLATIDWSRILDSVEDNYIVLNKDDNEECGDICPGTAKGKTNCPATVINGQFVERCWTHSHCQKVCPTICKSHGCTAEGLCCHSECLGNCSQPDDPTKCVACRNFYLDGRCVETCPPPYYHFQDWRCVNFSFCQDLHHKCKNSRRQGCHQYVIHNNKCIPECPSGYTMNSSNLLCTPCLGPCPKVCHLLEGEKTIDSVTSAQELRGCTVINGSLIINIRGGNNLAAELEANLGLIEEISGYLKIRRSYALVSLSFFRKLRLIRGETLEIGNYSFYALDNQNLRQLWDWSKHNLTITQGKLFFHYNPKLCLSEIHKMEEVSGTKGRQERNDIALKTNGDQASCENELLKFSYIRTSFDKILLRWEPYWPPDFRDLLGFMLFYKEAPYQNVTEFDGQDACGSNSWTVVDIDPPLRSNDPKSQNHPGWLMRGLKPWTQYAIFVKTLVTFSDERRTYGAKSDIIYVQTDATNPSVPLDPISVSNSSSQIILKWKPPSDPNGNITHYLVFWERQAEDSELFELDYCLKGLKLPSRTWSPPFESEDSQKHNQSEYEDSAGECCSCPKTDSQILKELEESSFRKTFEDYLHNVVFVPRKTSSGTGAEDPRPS
Insulin receptor, sequence (P06213 763-1382 limits assumed): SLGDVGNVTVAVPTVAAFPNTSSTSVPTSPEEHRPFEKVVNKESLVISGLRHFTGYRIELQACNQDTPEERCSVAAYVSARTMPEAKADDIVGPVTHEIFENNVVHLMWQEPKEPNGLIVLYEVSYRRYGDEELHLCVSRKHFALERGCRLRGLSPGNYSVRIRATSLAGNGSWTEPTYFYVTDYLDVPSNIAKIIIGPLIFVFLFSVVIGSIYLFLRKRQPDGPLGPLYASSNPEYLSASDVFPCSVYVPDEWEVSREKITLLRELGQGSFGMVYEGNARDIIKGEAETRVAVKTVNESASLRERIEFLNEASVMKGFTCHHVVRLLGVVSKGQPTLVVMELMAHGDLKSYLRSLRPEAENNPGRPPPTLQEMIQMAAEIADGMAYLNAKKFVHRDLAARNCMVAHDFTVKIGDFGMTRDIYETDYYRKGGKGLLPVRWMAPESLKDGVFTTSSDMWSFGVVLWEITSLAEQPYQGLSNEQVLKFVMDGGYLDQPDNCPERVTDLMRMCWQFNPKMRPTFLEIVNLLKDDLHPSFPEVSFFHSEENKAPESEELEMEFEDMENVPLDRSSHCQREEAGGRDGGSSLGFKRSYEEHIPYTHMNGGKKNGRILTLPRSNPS

For the compound `Cn1cc(-n2cnc3c(NCc4nc5cc(Cl)c(Cl)cc5[nH]4)nc(N4CCOCC4)nc32)cn1`, in assay [1], the % of control was -1.61%. In assay [2], `COc1cc(N(C)c2ccnc3ccc(C(F)(F)F)cc23)cc(OC)c1OC` registered a % binding of 98%. Turning to `CN(C)CCOc1ccc(-c2nc(-c3ccncc3)c(-c3ccc4c(c3)CC/C4=N\O)[nH]2)cc1`, in assay [3], the % of control was found to be 100%. Consider `Nc1cnc(N2CCc3cc(S(=O)(=O)Nc4c(F)cc(Cl)cc4F)cc(N4CCCC4=O)c32)nc1` [TP-020n], for which the % of control in assay [4] was determined as 100%. Compound `CN(C(=O)c1cnn2cccnc12)c1cc2c(cc1N1CCOCC1)C(=O)N(C[C@@H](F)C(C)(C)O)C2` showed a dTM in assay [5] of -0.4 K.

`Cc1ccc(-c2ccc3c(ccc4sc5c(c43)NC[C@@H](C)NC5=O)n2)cn1` returned a % of inhibition in assay [6] of 1%.
